Target: human PDE10A2 (Homo sapiens (Human), UniProt Q9Y233)
Assay: PDE10 fluorescence polarization (IMAP FP) inhibition assay
Type: biochemical
Conditions: human PDE10A2 lysate, FAM-labeled cAMP 50 nM, room temperature; read-out: PDE10A Ki
How it was run: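 Cytoplasmic lysate of AD293 cells transiently expressing human PDE10A2, diluted for ~20% conversion of 50 nM FAM-cAMP, in 10 mM Tris pH 7.2, 10 mM MgCl2, 1 mM DTT, 0.01% Tween-20. Reaction 30 min at room temperature, read by IMAP fluorescence polarization; 10-point 3-fold titrations, 1% DMSO as 0%, reference PDE10 inhibitor at 5,000× Ki as 100%.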

human PDE10A2, sequence (Q9Y233 267-1055): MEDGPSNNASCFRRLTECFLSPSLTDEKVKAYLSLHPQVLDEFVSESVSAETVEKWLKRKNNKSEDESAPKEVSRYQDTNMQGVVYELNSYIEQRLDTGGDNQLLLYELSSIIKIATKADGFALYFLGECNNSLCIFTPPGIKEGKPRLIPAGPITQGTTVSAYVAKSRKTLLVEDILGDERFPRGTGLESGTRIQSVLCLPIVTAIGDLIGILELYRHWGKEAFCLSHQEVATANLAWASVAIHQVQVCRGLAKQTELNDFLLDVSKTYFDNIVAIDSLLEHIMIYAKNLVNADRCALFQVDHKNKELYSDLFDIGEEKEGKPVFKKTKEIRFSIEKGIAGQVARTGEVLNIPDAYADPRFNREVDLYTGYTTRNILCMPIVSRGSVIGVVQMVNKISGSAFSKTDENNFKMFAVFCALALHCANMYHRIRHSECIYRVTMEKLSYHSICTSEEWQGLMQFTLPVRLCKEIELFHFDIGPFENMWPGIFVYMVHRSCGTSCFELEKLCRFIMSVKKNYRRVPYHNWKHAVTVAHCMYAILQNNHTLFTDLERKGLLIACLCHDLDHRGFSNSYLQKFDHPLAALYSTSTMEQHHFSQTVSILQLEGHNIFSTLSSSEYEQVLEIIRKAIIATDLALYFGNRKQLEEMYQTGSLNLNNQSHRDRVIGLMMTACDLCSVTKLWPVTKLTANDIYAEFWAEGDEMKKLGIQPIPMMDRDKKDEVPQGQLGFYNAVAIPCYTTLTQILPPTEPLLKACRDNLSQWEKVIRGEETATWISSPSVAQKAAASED

Structure (SMILES) | Ki [nM]
COc1ccc([C@H]2C[C@@H]2COc2cc(NCCc3nccs3)c(=O)n(C)n2)nc1 [Example 136, 6-(((1S,2S)-2-(5-methoxy-pyridin-2-yl)cyclopropyl-)methoxy)-2-methyl-4-(2-(thiazol-2-yl)ethylamino-)pyridazin-3(2H)-one] | 10.3
CCc1cc(CNc2cc(OC[C@H]3C[C@@H]3c3ccc(OC)cn3)nn(C)c2=O)n(C)n1 [Example 137, 4-((3-ethyl-1-methyl-1H-pyrazol-5-yl)methylamino)-6-(((1S,2S)-2-(5-methoxypyridin-2-yl)cyclopropyl)methoxy)-2-methylpyridazin-3(2H)-one] | 0.058
CCc1cc(CNc2cc(OC[C@H]3C[C@@H]3c3ccc(C)cn3)nn(C)c2=O)n(C)n1 [Example 138, 4-((3-ethyl-1-methyl-1H-pyrazol-5-yl)methylamino)-2-methyl-6-(((1S,2S)-2-(5-methylpyridin-2-yl)cyclopropyl)methoxy) pyridazin-3(2H)-one] | 0.027
CCc1cc(CNc2cc(OC[C@H]3C[C@@H]3c3ccn(C)n3)nn(C)c2=O)n(C)n1 [Example 139, 4-((3-ethyl-1-methyl-1H-pyrazol-5-yl)methylamino)-2-methyl-6-(((1S,2S)-2-(1-methyl-1H-pyrazol-3-yl)cyclopropyl)methoxy) pyridazin-3(2H)-one] | 0.295
COc1ccc([C@H]2C[C@@H]2COc2nn(C)c(=O)c(NCc3nnc(C)s3)c2Br)nc1 [Example 140, 5-bromo-6-(((1S,2S)-2-(5-methoxypyridin-2-yl)cyclopropyl)methoxy)-2-methyl-4-((5-methyl-1,3,4-thiadiazol-2-yl)methyl-amino)pyridazin-3(2H)-one] | 0.004
COc1ccc([C@H]2C[C@@H]2COc2nn(C)c(=O)c(NCc3nnc(C)s3)c2Cl)nc1 [Example 141, 5-chloro-6-(((1S,2S)-2-(5-methoxypyridin-2-yl)cyclopropyl)methoxy)-2-methyl-4-((5-methyl-1,3,4-thiadiazol-2-yl)methylamino)pyridazin-3(2H)-one] | 0.004
COc1ccc(Cn2nc(OC[C@H]3C[C@@H]3c3ccc(OC)cn3)cc(NCc3nnc(C)s3)c2=O)cc1 [Example 142, 2-(4-methoxybenzyl)-6-(((1S,2S)-2-(5-methoxy-pyridin-2-yl)cyclopropyl-)methoxy)-4-((5-methyl-1,3,4-thiadiazol-2-yl)methyl-amino)pyridazin-3(2H)-one] | 75
CCn1nc(OC[C@H]2C[C@@H]2c2ccc(OC)cn2)cc(NCc2nnc(C)s2)c1=O [Example 144, 2-ethyl-6-(((1S,2S)-2-(5-methoxypyridin-2-yl)cyclopropyl)methoxy)-4-((5-methyl-1,3,4-thiadiazol-2-yl)methylamino)pyridazin-3(2H)-one] | 0.032
C#CCN(Cc1ccc(OC)cc1)c1cc(OC[C@H]2C[C@@H]2c2ccc(OC)cn2)nn(C)c1=O [Example 145, 4-((4-methoxybenzyl)(prop-2-ynyl)amino)-6-(((1S,2S)-2-(5-methoxypyridin-2-yl)cyclopropyl)methoxy)-2-methylpyridazin-3(2H)-one] | 7.9
COc1ccc([C@H]2C[C@@H]2COc2cc(NCc3c[nH]nn3)c(=O)n(C)n2)nc1 [Example 146, 4-((1H-1,2,3-triazol-4-yl)methylamino)-6-(((1S,2S)-2-(5-methoxypyridin-2-yl)cyclopropyl)methoxy)-2-methylpyridazin-3(2H)-one] | 0.048
COc1ccc([C@H]2C[C@@H]2COc2cc(NCc3cn(C)nn3)c(=O)n(C)n2)nc1 [Example 147, 6-(((1S,2S)-2-(5-methoxy-pyridin-2-yl)-cyclopropyl-)methoxy)-2-methyl-4-((1-methyl-1H-1,2,3-triazol-4-yl)methylamino)pyridazin-3(2H)-one] | 0.066
COc1ccc([C@H]2C[C@@H]2COc2cc(NCc3cnn(C)n3)c(=O)n(C)n2)nc1 [Example 148, 6-(((1S,2S)-2-(5-methoxypyridin-2-yl)cyclopropyl)methoxy)-2-methyl-4-((2-methyl-2H-1,2,3-triazol-4-yl)methylamino)pyridazin-3(2H)-one] | 0.648
